From ChEMBL document CHEMBL6153135, “Rational Design of a Potent, Selective, and Metabolically Stable CDK9 Inhibitor to Counteract Osimertinib Resistance through Mcl-1 Suppression and Enhanced BRD4 Co-Targeting” (J Med Chem, 2025)
In brackets after ≈: the same amount, converted by molar mass. Activity calls are given as the source filed them. The calls are words filed in the database; no cut-off is given here.

Assays:
[1] = Metabolic stability in rat liver microsomes assessed as half life measured for 5 to 60 mins by LC-MS/MS analysis; type: ADME, Microsome; conditions: time 5-60 min
CDK2/Cyclin A2 = CDK2/Cyclin A2 (Homo sapiens, UniProt P24941); assay: Inhibition of CDK2/Cyclin A2 (unknown origin) preincubated for 10 mins followed by substrate/ATP measured after 60 mins by ADP-Glo assay; type: protein-complex assay
[2] = system: Osimertinib-resistant NCI-H1975 cell; assay: Anti-proliferative activity against human Osimertinib-resistant NCI-H1975 cells assessed as cell inhibition measured after 72 hrs by MTT assay; type: functional, cell-based
NCI-H1975 [3] = assay: Anti-proliferative activity against human NCI-H1975 cells assessed as cell inhibition measured after 72 hrs by MTT assay; type: functional, cell-based; conditions: NCI-H1975, 72 h
[4] = Metabolic stability in human liver microsomes assessed as half life measured for 5 to 60 mins by LC-MS/MS analysis; type: ADME, Microsome; conditions: time 5-60 min
CDK9/cyclin T1 = CDK9/cyclin T1 (Homo sapiens, UniProt P50750); assay: Inhibition of CDK9/cyclin T1 (unknown origin) preincubated for 10 mins followed by substrate/ATP measured after 60 mins by ADP-Glo assay; type: protein-complex assay
Sequence of CDK9/cyclin T1 (O60563 whole entry): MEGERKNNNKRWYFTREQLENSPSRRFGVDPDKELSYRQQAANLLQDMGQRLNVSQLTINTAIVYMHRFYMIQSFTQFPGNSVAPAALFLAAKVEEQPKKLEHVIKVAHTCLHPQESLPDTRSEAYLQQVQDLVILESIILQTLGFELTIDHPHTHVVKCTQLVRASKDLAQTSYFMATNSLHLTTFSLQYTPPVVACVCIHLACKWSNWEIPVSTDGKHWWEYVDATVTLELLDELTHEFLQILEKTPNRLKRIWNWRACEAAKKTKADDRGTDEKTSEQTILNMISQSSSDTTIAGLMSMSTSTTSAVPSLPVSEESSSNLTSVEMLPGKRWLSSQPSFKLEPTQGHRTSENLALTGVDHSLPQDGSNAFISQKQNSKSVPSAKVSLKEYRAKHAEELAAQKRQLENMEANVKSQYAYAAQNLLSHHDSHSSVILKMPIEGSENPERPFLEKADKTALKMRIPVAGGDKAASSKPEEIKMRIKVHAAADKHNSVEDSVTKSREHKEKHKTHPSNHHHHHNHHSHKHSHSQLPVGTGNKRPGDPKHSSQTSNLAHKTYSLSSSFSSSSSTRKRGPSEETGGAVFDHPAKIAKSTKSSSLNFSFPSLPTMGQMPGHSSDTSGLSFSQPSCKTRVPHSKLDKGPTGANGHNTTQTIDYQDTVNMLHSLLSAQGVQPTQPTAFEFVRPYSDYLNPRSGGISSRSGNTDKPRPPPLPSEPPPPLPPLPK
Sequence of CDK9/cyclin T1 (P50750 whole entry): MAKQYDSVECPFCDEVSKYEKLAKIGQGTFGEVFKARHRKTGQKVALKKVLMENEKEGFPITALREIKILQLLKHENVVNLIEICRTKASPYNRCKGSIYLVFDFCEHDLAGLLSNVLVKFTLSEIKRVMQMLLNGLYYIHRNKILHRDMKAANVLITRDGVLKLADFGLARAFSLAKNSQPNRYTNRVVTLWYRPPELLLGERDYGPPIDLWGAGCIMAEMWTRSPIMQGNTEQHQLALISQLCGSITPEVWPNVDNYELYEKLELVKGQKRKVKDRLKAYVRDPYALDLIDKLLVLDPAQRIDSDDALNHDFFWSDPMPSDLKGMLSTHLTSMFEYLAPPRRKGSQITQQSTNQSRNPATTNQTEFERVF

[5] = Anti-proliferative activity against human Osimertinib-resistant HCC827 cells assessed as cell inhibition measured after 72 hrs by MTT assay; type: functional, cell-based
[6] = Solubility of compound in PBS at pH 6.0 incubated for 2 hrs by HPLC analysis; type: physicochemical
NCI-H1975 [7] = assay: Antitumor activity against human NCI-H1975 cells xenografted in BALB-c nude mouse assessed as tumor growth inhibition at 30 mg/kg, ip; type: functional, organism-based
HCC827 = assay: Anti-proliferative activity against human HCC827 cells assessed as cell inhibition measured after 72 hrs by MTT assay; type: functional, cell-based; conditions: HCC827, 72 h
[8] = system: Osimertinib-resistant HCC827 cell; assay: Antitumor activity against human Osimertinib-resistant HCC827 cells xenografted in BALB-c nude mouse assessed as tumor growth inhibition at 30 mg/kg, ip; type: functional, organism-based
[9] = Toxicity in BALB-c mouse xenografted with human NCI-H1975 cells assessed as decrease in body weight at 30 mg/kg, ip; type: organism-based; conditions: in vivo
[10] = Toxicity in BALB-c mouse xenografted with human Osimertinib-resistant HCC827 cells assessed as decrease in body weight at 30 mg/kg, ip; type: organism-based; conditions: in vivo
[11] = system: Osimertinib-resistant NCI-H1975 cell; assay: Induction of apoptosis in human Osimertinib-resistant NCI-H1975 cells assessed as late apoptotic cells at 0.5 uM incubated for 16 hrs by Annexin V-FITC/PI staining based flow cytometry (reference value: 5.92 %); type: functional
NCI-H1299 = assay: Anti-proliferative activity against human NCI-H1299 cells assessed as cell inhibition measured after 72 hrs by MTT assay; type: functional, cell-based; conditions: NCI-H1299, 72 h
16HBE14o- = assay: Anti-proliferative activity against human 16-HBE cells assessed as cell inhibition measured after 72 hrs by MTT assay; type: functional, cell-based
PC-9 = assay: Anti-proliferative activity against human PC-9 cells assessed as cell inhibition measured after 72 hrs by MTT assay; type: functional, cell-based; conditions: PC-9, 72 h
[12] = system: Osimertinib-resistant NCI-H1975 cell; assay: Induction of apoptosis in human Osimertinib-resistant NCI-H1975 cells assessed as early apoptotic cells at 0.5 uM incubated for 16 hrs by Annexin V-FITC/PI staining based flow cytometry (reference value: 4.39 %); type: functional
[13] = system: Osimertinib-resistant NCI-H1975 cell; assay: Induction of apoptosis in human Osimertinib-resistant NCI-H1975 cells assessed as necrotic cells at 0.5 uM incubated for 16 hrs by Annexin V-FITC/PI staining based flow cytometry (reference value: 0.33 %); type: functional
NCI-H596 = assay: Anti-proliferative activity against human NCI-H596 cells assessed as cell inhibition measured after 72 hrs by MTT assay; type: functional, cell-based; conditions: NCI-H596, 72 h
[14] = system: Osimertinib-resistant NCI-H1975 cell; assay: Induction of apoptosis in human Osimertinib-resistant NCI-H1975 cells assessed as viable cells at 0.5 uM incubated for 16 hrs by Annexin V-FITC/PI staining based flow cytometry (reference value: 89.4 %); type: functional; conditions: read-out: Activity

CC(C)N1CCC(NC(=O)c2ccc3cc2OCCCCCCOc2cc(ccc2F)-c2nc(ncc2F)N3)CC1
half-life [1]: 8.6 min
IC50 (CDK2/Cyclin A2): 67 nM
IC50 [2]: 360 nM
IC50 (NCI-H1975 [3]): 370 nM
half-life [4]: 161 min
IC50 (CDK9/cyclin T1): 2.3 nM

O=C(NCCN1CCOCC1)c1ccc2cc1OCCCCCCOc1cc(ccc1F)-c1nc(ncc1F)N2
half-life [1]: 6.8 min
IC50 (NCI-H1975 [3]): 180 nM
IC50 [5]: 240 nM
half-life [4]: 10.7 min
solubility at 2 h [6]: 17 µg/mL (≈ 30.7 µM)

O=C(NC1CCN(C2CC2)CC1)c1ccc2cc1OCCCCCCOc1cc(ccc1F)-c1nc(ncc1F)N2
half-life [1]: 64.7 min
IC50 (CDK2/Cyclin A2): 370 nM
IC50 [2]: 230 nM
IC50 (NCI-H1975 [3]): 320 nM
IC50 [5]: 210 nM
half-life [4]: 21.4 min
IC50 (CDK9/cyclin T1): 3.4 nM

O=C(NCCN1CCCC1)c1ccc2cc1OCCCCCCOc1cc(ccc1F)-c1nc(ncc1F)N2
half-life [1]: 36.7 min
IC50 (CDK2/Cyclin A2): 18.3 nM
IC50 [2]: 100 nM
IC50 (NCI-H1975 [3]): 290 nM
IC50 [5]: 140 nM
half-life [4]: 37.7 min
IC50 (CDK9/cyclin T1): 1.7 nM

O=C(NC1CCN(C2CCOCC2)CC1)c1ccc2cc1OCCCCCCOc1cc(ccc1F)-c1nc(ncc1F)N2
half-life [4]: 301 min

O=C(NC1CCN(C2CCOC2)CC1)c1ccc2cc1OCCCCCCOc1cncc(c1)-c1nc(ncc1F)N2 (stereo not given)
IC50 (CDK2/Cyclin A2): 18.1 nM
IC50 (NCI-H1975 [3]): 60 nM
IC50 [5]: 40 nM
solubility at 2 h [6]: 58 µg/mL (≈ 101 µM)
IC50 (CDK9/cyclin T1): 1.1 nM

Cc1sc2c(c1C)C(c1ccc(Cl)cc1)=N[C@@H](CC(=O)OC(C)(C)C)c1nnc(C)n1-2
inhibition (NCI-H1975 [7]): inactive
IC50 (HCC827): 9740 nM
inhibition [8]: inactive
Activity [9]: Non-toxic
IC50 [2]: 2290 nM
IC50 (NCI-H1975 [3]): 3970 nM
Activity [10]: Non-toxic
IC50 [5]: 8910 nM

O=C(NC1CCN(C2CC2)CC1)c1ccc2cc1OCCCCCCOc1cncc(c1)-c1nc(ncc1F)N2
IC50 (CDK2/Cyclin A2): 28.3 nM
IC50 (CDK9/cyclin T1): 1.4 nM

O=C(NC1CCN(C2CCOC2)CC1)c1ccc2cc1OCCCCCCOc1cc(ccc1F)-c1ncnc(n1)N2 (stereo not given)
IC50 (CDK2/Cyclin A2): 286 nM
IC50 (NCI-H1975 [3]): 110 nM
IC50 [5]: 350 nM
solubility at 2 h [6]: 27 µg/mL (≈ 46.8 µM)
IC50 (CDK9/cyclin T1): 6.1 nM

CN1CCC(NC(=O)c2ccc3cc2OCCCCCCOc2cc(ccc2F)-c2nc(ncc2F)N3)CC1
half-life [1]: 42.5 min
half-life [4]: 66.6 min

CCN1CCC(NC(=O)c2ccc3cc2OCCCCCCOc2cc(ccc2F)-c2nc(ncc2F)N3)CC1
half-life [1]: 5.4 min
IC50 (CDK2/Cyclin A2): 68.8 nM
IC50 [2]: 280 nM
IC50 (NCI-H1975 [3]): 280 nM
half-life [4]: 257 min
IC50 (CDK9/cyclin T1): 2.3 nM

O=C(NCCN1CCOCC1)c1ccc2cc1OCCCCCCOc1cncc(c1)-c1nc(ncc1F)N2
IC50 (CDK2/Cyclin A2): 22.2 nM
IC50 (NCI-H1975 [3]): 70 nM
solubility at 2 h [6]: 39 µg/mL (≈ 72.7 µM)
IC50 (CDK9/cyclin T1): 1.5 nM

O=C(NC1CCN(C2CC2)CC1)c1ccc2cc1OCCCCCCn1cc(cn1)-c1nc(ncc1F)N2
IC50 (CDK2/Cyclin A2): 11.4 nM
IC50 (CDK9/cyclin T1): 1 nM

CC(=O)N1CCC(NC(=O)c2ccc3cc2OCCCCCCOc2cncc(c2)-c2nc(ncc2F)N3)CC1
IC50 (CDK2/Cyclin A2): 20.6 nM
IC50 [5]: 40 nM
IC50 (CDK9/cyclin T1): 1 nM

COc1cc(F)ccc1-c1cc(Nc2cc(CS(C)(=N)=O)ccn2)ncc1F (stereo not given) [ENITOCICLIB]
Activity [11]: 10.1%
IC50 (NCI-H1299): 130 nM
IC50 (HCC827): 130 nM
IC50 (16HBE14o-): 410 nM
IC50 (PC-9): 120 nM
IC50 [2]: 120 nM
Activity [12]: 11.8%
IC50 (NCI-H1975 [3]): 140 nM
Activity [13]: 1.26%
IC50 [5]: 130 nM
IC50 (NCI-H596): 90 nM
viability at 0.5 µM [14]: 76.9%

O=C(NC1CCN(C2CCOC2)CC1)c1ccc2cc1OCCCCCCn1cc(cn1)-c1nc(ncc1F)N2 (stereo not given)
IC50 (CDK2/Cyclin A2): 14.2 nM
IC50 (NCI-H1975 [3]): 90 nM
IC50 [5]: 80 nM
solubility at 2 h [6]: 35 µg/mL (≈ 63.7 µM)
IC50 (CDK9/cyclin T1): 1.3 nM

COC[C@@H](C)NC(=O)c1ccc2cc1OCCCCCCOc1cc(ccc1F)-c1nc(ncc1F)N2
half-life [1]: 123 min
IC50 (CDK2/Cyclin A2): > 500 nM
IC50 [2]: 220 nM
IC50 (NCI-H1975 [3]): 300 nM
IC50 [5]: 280 nM
half-life [4]: 11.3 min
IC50 (CDK9/cyclin T1): 2.5 nM

O=C(CN1CCOCC1)NCc1ccc2cc1OCCCCCCOc1cc(ccc1F)-c1nc(ncc1F)N2
IC50 (CDK2/Cyclin A2): 200 nM
IC50 (NCI-H1975 [3]): 590 nM
solubility at 2 h [6]: 20 µg/mL (≈ 36.1 µM)
IC50 (CDK9/cyclin T1): 5.13 nM

O=C(NC1CCN(C2CCOC2)CC1)c1ccc2cc1OCCCCCCOc1cc(ccc1F)-c1nc(ncc1F)N2 (stereo not given)
half-life [1]: 25.2 min
IC50 (CDK2/Cyclin A2): 150 nM
IC50 [2]: 110 nM
IC50 (NCI-H1975 [3]): 380 nM
IC50 [5]: 300 nM
half-life [4]: 55 min
IC50 (CDK9/cyclin T1): 1 nM

CN1CCC(CNC(=O)c2ccc3cc2OCCCCCCOc2cc(ccc2F)-c2nc(ncc2F)N3)CC1
half-life [1]: 12.4 min
IC50 (CDK2/Cyclin A2): 38.9 nM
IC50 [2]: 250 nM
half-life [4]: 112 min
IC50 (CDK9/cyclin T1): 3.1 nM

CN1CCN(CCNC(=O)c2ccc3cc2OCCCCCCOc2cc(ccc2F)-c2nc(ncc2F)N3)CC1
half-life [1]: 9.5 min
half-life [4]: 13.2 min
